According to ChEMBL document CHEMBL1201862, “PubChem BioAssay data set” (2004):
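Interpolation was linear, between the two tested concentrations surrounding the appropriate level; five concentrations were tested over 48 hours in 96-well plates. GI50 = concentration required for 50% inhibition of growth.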 Activity calls are given as the source filed them. Rule as the data show it: active = GI50 up to about 1.1 µM and inactive = higher.

Tests used:
Assay in all cases: NCI-60 cell line screen, 48 h
SR = tested on: SR
CCRF-CEM = tested on: CCRF-CEM
NCI-H226 = tested on: NCI-H226
NCI-H460 = tested on: NCI-H460
SK-MEL-2 = tested on: SK-MEL-2
UACC-257 = tested on: UACC-257
HOP-62 = tested on: HOP-62
ACHN = tested on: ACHN
SN12C = tested on: SN12C
SNB-19 = tested on: SNB-19
MOLT-4 = tested on: MOLT-4
HCT-116 = tested on: HCT-116
Malme-3M = tested on: Malme-3M
M14 = tested on: M14
HL-60 = tested on: HL-60
UACC-62 = tested on: UACC-62
RPMI-8226 = tested on: RPMI-8226
U-251 = tested on: U-251
SK-MEL-28 = tested on: SK-MEL-28
COLO 205 = tested on: COLO 205

Structure (SMILES) | GI50 (SR) | GI50 (CCRF-CEM) | GI50 (NCI-H226) | GI50 (NCI-H460) | GI50 (SK-MEL-2) | GI50 (UACC-257) | GI50 (HOP-62) | GI50 (ACHN) | GI50 (SN12C) | GI50 (SNB-19) | GI50 (MOLT-4) | GI50 (HCT-116) | GI50 (Malme-3M) | GI50 (M14) | GI50 (HL-60) | GI50 (UACC-62) | GI50 (RPMI-8226) | GI50 (U-251) | GI50 (SK-MEL-28) | GI50 (COLO 205)
COc1cccc(Nc2n[nH]c(NS(=O)(=O)c3cc(C)c(Cl)cc3S)n2)c1 | > 100 µM (inactive) | > 100 µM (inactive) | > 100 µM (inactive) | > 100 µM (inactive) | > 100 µM (inactive) | > 100 µM (inactive) | > 100 µM (inactive) | > 100 µM (inactive) | > 100 µM (inactive) | > 100 µM (inactive) | > 100 µM (inactive) | > 100 µM (inactive) | > 100 µM (inactive) | > 100 µM (inactive) | > 100 µM (inactive) | > 100 µM (inactive) | > 100 µM (inactive) | > 100 µM (inactive) | > 100 µM (inactive) | > 100 µM (inactive)
NS(=O)(=O)c1cc2c(cc1Cl)NC(C(=O)c1cc(=O)c3ccc(O)cc3o1)=NS2(=O)=O | > 100 µM (inactive) | > 100 µM (inactive) | > 100 µM (inactive) | > 100 µM (inactive) | > 100 µM (inactive) | > 100 µM (inactive) | > 100 µM (inactive) | > 100 µM (inactive) | > 100 µM (inactive) | > 100 µM (inactive) | > 100 µM (inactive) | > 100 µM (inactive) | > 100 µM (inactive) | > 100 µM (inactive) | > 100 µM (inactive) | > 100 µM (inactive) | > 100 µM (inactive) | > 100 µM (inactive) | > 100 µM (inactive) | > 100 µM (inactive)
Cc1ccc(NC(=O)CCC(=O)C2CC(=O)CC/C2=N\NC(=O)c2cc3ccccc3cc2O)cc1C (stereo not given) | 22.1 µM (inactive) | 11.5 µM (inactive) | 23 µM (inactive) | 25.2 µM (inactive) | 26.4 µM (inactive) | 20.7 µM (inactive) | 43.4 µM (inactive) | 18.9 µM (inactive) | 48.9 µM (inactive) | 40.7 µM (inactive) | 17.7 µM (inactive) | 19.6 µM (inactive) | 30.4 µM (inactive) | 25.8 µM (inactive) | 4.35 µM (inactive) | 10.2 µM (inactive) | 25 µM (inactive) | 40.1 µM (inactive) | 65 µM (inactive) | 16.9 µM (inactive)
CCSC(=O)/C=C1\CN(C(=O)OC(C)(C)C)C1C(=O)OC(C)(C)C (stereo not given) | 0.684 µM (active) | 1.27 µM (inactive) | 12.7 µM (inactive) | 7.14 µM (inactive) | 6.59 µM (inactive) | 4.21 µM (inactive) | 14.1 µM (inactive) | 3.63 µM (inactive) | 1.86 µM (inactive) | 12.1 µM (inactive) | 1.71 µM (inactive) | 1.55 µM (inactive) | 1.95 µM (inactive) | 1.77 µM (inactive) | 1.87 µM (inactive) | 3.2 µM (inactive) | 1.87 µM (inactive) | 6.19 µM (inactive) | 1.86 µM (inactive) | 2.02 µM (inactive)
